Measurements as given in ChEMBL document CHEMBL1201862, “PubChem BioAssay data set” (2004).
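Step 1: Grow cells in 96-well plates. Step 2: Expose to compound for 48 hours at 5 concentrations. Step 3: Interpolate endpoints linearly; if unreached, use highest concentration. GI50: concentration for 50% inhibition of growth.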 Active and inactive are the calls of the source. Rule as the data show it: active = GI50 up to about 1.1 µM and inactive = higher.

Experiments:
Assay in all cases: NCI tumour cell line growth inhibition, 48 h
OVCAR-3 = test system: OVCAR-3
NCI/ADR-RES = test system: NCI/ADR-RES
HCT-116 = test system: HCT-116
Hs-578T = test system: Hs-578T
ACHN = test system: ACHN
NCI-H23 = test system: NCI-H23
IGROV-1 = test system: IGROV-1
HCC 2998 = test system: HCC 2998
CAKI-1 = test system: CAKI-1
COLO 205 = test system: COLO 205
OVCAR-5 = test system: OVCAR-5
NCI-H522 = test system: NCI-H522
A549 = test system: A549
786-0 = test system: 786-0
MDA-MB-231 = test system: MDA-MB-231
HT-29 = test system: HT-29
UACC-62 = test system: UACC-62
UO-31 = test system: UO-31
OVCAR-8 = test system: OVCAR-8
KM12 = test system: KM12
RXF 393 = test system: RXF 393
DU-145 = test system: DU-145
EKVX = test system: EKVX
HCT-15 = test system: HCT-15
CCRF-CEM = test system: CCRF-CEM
SF-539 = test system: SF-539
SW-620 = test system: SW-620
SK-MEL-5 = test system: SK-MEL-5
SK-MEL-28 = test system: SK-MEL-28
SNB-75 = test system: SNB-75
NCI-H226 = test system: NCI-H226
BT-549 = test system: BT-549
HOP-62 = test system: HOP-62
MOLT-4 = test system: MOLT-4
T47D = test system: T47D
NCI-H460 = test system: NCI-H460
SF-268 = test system: SF-268
Malme-3M = test system: Malme-3M
K562 = test system: K562
LOX IMVI = test system: LOX IMVI
PC-3 = test system: PC-3
SK-MEL-2 = test system: SK-MEL-2
SR = test system: SR
HOP-92 = test system: HOP-92
RPMI-8226 = test system: RPMI-8226
SNB-19 = test system: SNB-19
MDA-N = test system: MDA-N
HL-60 = test system: HL-60
M14 = test system: M14
MDA-MB-435 = test system: MDA-MB-435
MCF7 = test system: MCF7
SK-OV-3 = test system: SK-OV-3
U-251 = test system: U-251
OVCAR-4 = test system: OVCAR-4
SN12C = test system: SN12C
SF-295 = test system: SF-295

SMILES: CC(C)(C)c1ccc(O)c(C(O)c2cccnc2)c1 (stereo not given)
- GI50 (OVCAR-3): > 100 µM (inactive)
- GI50 (NCI/ADR-RES): 94.6 µM (inactive)
- GI50 (HCT-116): > 100 µM (inactive)
- GI50 (Hs-578T): > 100 µM (inactive)
- GI50 (ACHN): > 100 µM (inactive)
- GI50 (NCI-H23): > 100 µM (inactive)
- GI50 (IGROV-1): > 100 µM (inactive)
- GI50 (HCC 2998): 76 µM (inactive)
- GI50 (CAKI-1): > 100 µM (inactive)
- GI50 (COLO 205): > 100 µM (inactive)
- GI50 (OVCAR-5): > 100 µM (inactive)
- GI50 (NCI-H522): > 100 µM (inactive)
- GI50 (A549): > 100 µM (inactive)
- GI50 (786-0): > 100 µM (inactive)
- GI50 (MDA-MB-231): > 100 µM (inactive)
- GI50 (HT-29): > 100 µM (inactive)
- GI50 (UACC-62): 16.6 µM (inactive)
- GI50 (UO-31): > 100 µM (inactive)
- GI50 (OVCAR-8): > 100 µM (inactive)
- GI50 (KM12): > 100 µM (inactive)
- GI50 (RXF 393): > 100 µM (inactive)
- GI50 (DU-145): > 100 µM (inactive)
- GI50 (EKVX): > 100 µM (inactive)
- GI50 (HCT-15): 72.1 µM
- GI50 (CCRF-CEM): 96.6 µM (inactive)
- GI50 (SF-539): > 100 µM (inactive)
- GI50 (SW-620): > 100 µM (inactive)
- GI50 (SK-MEL-5): 35 µM (inactive)
- GI50 (SK-MEL-28): > 100 µM (inactive)
- GI50 (SNB-75): 57 µM (inactive)
- GI50 (NCI-H226): > 100 µM (inactive)
- GI50 (BT-549): > 100 µM (inactive)
- GI50 (HOP-62): > 100 µM (inactive)
- GI50 (MOLT-4): > 100 µM (inactive)
- GI50 (T47D): 5.87 µM (inactive)
- GI50 (NCI-H460): > 100 µM (inactive)
- GI50 (SF-268): > 100 µM (inactive)
- GI50 (Malme-3M): > 100 µM (inactive)
- GI50 (K562): 81.5 µM (inactive)

SMILES: CCCCc1ccc(N2C(=O)c3cc(C)cnc3S2(=O)=O)cc1
- GI50 (OVCAR-3): > 100 µM (inactive)
- GI50 (NCI/ADR-RES): > 100 µM (inactive)
- GI50 (HCT-116): > 100 µM (inactive)
- GI50 (Hs-578T): 43.1 µM (inactive)
- GI50 (ACHN): > 100 µM (inactive)
- GI50 (NCI-H23): > 100 µM (inactive)
- GI50 (LOX IMVI): > 100 µM (inactive)
- GI50 (PC-3): > 100 µM (inactive)
- GI50 (IGROV-1): > 100 µM (inactive)
- GI50 (HCC 2998): > 100 µM (inactive)
- GI50 (COLO 205): > 100 µM (inactive)
- GI50 (SK-MEL-2): > 100 µM (inactive)
- GI50 (OVCAR-5): > 100 µM (inactive)
- GI50 (NCI-H522): > 100 µM (inactive)
- GI50 (SR): > 100 µM (inactive)
- GI50 (A549): > 100 µM (inactive)
- GI50 (HOP-92): > 100 µM (inactive)
- GI50 (786-0): > 100 µM (inactive)
- GI50 (MDA-MB-231): > 100 µM (inactive)
- GI50 (HT-29): > 100 µM (inactive)
- GI50 (UO-31): > 100 µM (inactive)
- GI50 (OVCAR-8): > 100 µM (inactive)
- GI50 (RPMI-8226): > 100 µM (inactive)
- GI50 (SNB-19): > 100 µM (inactive)
- GI50 (MDA-N): > 100 µM (inactive)
- GI50 (KM12): > 100 µM (inactive)
- GI50 (RXF 393): 49.2 µM (inactive)
- GI50 (DU-145): > 100 µM (inactive)
- GI50 (EKVX): > 100 µM (inactive)
- GI50 (HL-60): > 100 µM (inactive)
- GI50 (HCT-15): > 100 µM
- GI50 (M14): > 100 µM (inactive)
- GI50 (MDA-MB-435): > 100 µM (inactive)
- GI50 (SW-620): > 100 µM (inactive)
- GI50 (SK-MEL-5): > 100 µM (inactive)
- GI50 (SK-MEL-28): > 100 µM (inactive)
- GI50 (SNB-75): 59.2 µM (inactive)
- GI50 (NCI-H226): > 100 µM (inactive)
- GI50 (MCF7): > 100 µM (inactive)
- GI50 (HOP-62): 85.7 µM (inactive)
- GI50 (SK-OV-3): 63.2 µM (inactive)
- GI50 (MOLT-4): > 100 µM (inactive)
- GI50 (T47D): > 100 µM (inactive)
- GI50 (NCI-H460): > 100 µM (inactive)
- GI50 (U-251): > 100 µM (inactive)
- GI50 (OVCAR-4): > 100 µM (inactive)
- GI50 (SF-268): 97.5 µM (inactive)
- GI50 (Malme-3M): > 100 µM (inactive)
- GI50 (K562): > 100 µM (inactive)
- GI50 (SN12C): > 100 µM (inactive)
- GI50 (SF-295): 91.8 µM (inactive)
